Data set [1] can be described thus: Assay of Dynamic Vapor Sorption (DVS). Format: physicochemical. The settings on record: for weight change: range of 0% to 80% RH.
A short description of data set [2]: Pharmacokinetics in female SD rats, intragastric gavage. The settings on record: PO. Format: in vivo. On the procedure:
6 female SD rats were divided into two groups, three rats in each group. 50 mg/kg of Crystalline form A of the compound of formula I and free base amorphis of the compound of formula I were administered by intragastric gavage at single dose to each female SD rat respectively; the blood samples were collected through the jugular vein at the specified time, and the plasma from these samples was separated and stored in the refrigerator at −80° C.
For the above plasma from these samples, protein was precipitated using acetonitrile, the supernatant was diluted 3-fold by water, then took 5 μL of the solution for LC-MS/MS test, and data is shown in Table 9: […]

A short description of data set [3]: Solubility determination in water. It is filed as physicochemical. The settings on record: room temperature.
A short description of data set [4]: Stability of the crystalline form. It is filed as physicochemical.
The target in data set [5] is T1, TRKB (Homo sapiens, UniProt Q16620).
T1 construct: purchased Reaction Biology Corp
T1 sequence (Q16620 32-822): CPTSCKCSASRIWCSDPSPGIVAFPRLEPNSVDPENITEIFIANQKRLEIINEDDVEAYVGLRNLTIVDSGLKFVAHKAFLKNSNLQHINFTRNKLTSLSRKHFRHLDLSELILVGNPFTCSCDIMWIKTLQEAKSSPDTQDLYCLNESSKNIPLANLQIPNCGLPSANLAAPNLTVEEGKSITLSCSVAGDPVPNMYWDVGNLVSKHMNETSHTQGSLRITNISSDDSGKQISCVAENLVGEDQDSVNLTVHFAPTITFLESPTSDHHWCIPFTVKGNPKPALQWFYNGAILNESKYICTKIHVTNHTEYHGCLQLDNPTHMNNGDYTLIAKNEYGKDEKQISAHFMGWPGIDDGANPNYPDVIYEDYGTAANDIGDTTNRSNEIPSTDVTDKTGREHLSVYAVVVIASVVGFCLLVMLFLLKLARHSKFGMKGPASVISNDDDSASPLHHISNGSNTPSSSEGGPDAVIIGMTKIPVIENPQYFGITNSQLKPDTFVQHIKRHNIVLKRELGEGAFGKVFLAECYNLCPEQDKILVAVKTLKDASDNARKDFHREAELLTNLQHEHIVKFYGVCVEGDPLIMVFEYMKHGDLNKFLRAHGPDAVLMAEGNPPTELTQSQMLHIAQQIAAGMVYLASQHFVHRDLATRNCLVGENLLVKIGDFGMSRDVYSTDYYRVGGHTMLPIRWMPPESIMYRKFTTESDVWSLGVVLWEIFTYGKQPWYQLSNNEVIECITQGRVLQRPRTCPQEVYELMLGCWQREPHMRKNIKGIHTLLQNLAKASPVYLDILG
The data set can be described thus: Biochemical kinase activity (Reaction Biology Corp). On the procedure:
(§1) Biochemical kinase activity of the compound as shown in formula I was tested by Reaction Biology Corp located in Malvern, Pa., USA. The testing rules is described in Nat Biotechnol.

Data set [6] has as its target T2, NEK1 (Homo sapiens, UniProt Q96PY6).
T2 construct: purchased Reaction Biology Corp (contract testing)
The description is as above. The method, then: as §1

Data set [7] addresses T3, ALK(L1196M) (Homo sapiens, UniProt Q9UM73, L1196M).
T3 construct: purchased Reaction Biology Corp (contract testing)
The data set is described as above. On the procedure:
as §1

In data set [8] the target is T4, EPHA2 (Homo sapiens, UniProt P29317).
T4 construct: purchased Reaction Biology Corp (contract testing)
The data set is described as above. The method, then: as §1

Data set [9] addresses T5, ALK (F1174L) (Homo sapiens, UniProt Q9UM73, F1174L).
T5 construct: purchased Reaction Biology Corp (contract testing)
Described as above. The method, then: as §1

For data set [10], the target named is T6, TRKA-TFG (TRK-T3) (Homo sapiens, UniProt P04629).
T6 construct: TFG (fusion partner, UniProt Q92734); purchased Reaction Biology Corp; the other entry of the earlier key: TFG (Q92734, Protein TFG)
Described as above. On the procedure: as §1

Data set [11] concerns the target T7, CSF1R (FMS) (Homo sapiens, UniProt P07333).
T7 construct: purchased Reaction Biology Corp (contract testing)
The description is as above. The method, then: as §1

Data set [12] addresses T8, TRKA-TPR (Homo sapiens, UniProt P04629).
T8 construct: fused on or other part: P12270 (Nucleoprotein TPR)
Described as above. The method, then: as §1

Data set [13] deals with T9, TRKC (Homo sapiens, UniProt Q16288).
T9 construct: purchased Reaction Biology Corp
Described as above. On the procedure:
as §1

Data set [14] deals with T10, ALK (G1269S) (Homo sapiens, UniProt Q9UM73, G1269S).
T10 construct: purchased Reaction Biology Corp (contract testing)
The description is as above. The method, then:
as §1

Data set [15] has as its target T11, ALK (T1151-L1152insT) (Homo sapiens, UniProt Q9UM73, INS1151T).
T11 construct: purchased Reaction Biology Corp (contract testing)
The data set is described as above. On the procedure:
as §1

Data set [16] concerns the target T12, ALK (Homo sapiens, UniProt Q9UM73).
T12 construct: purchased Reaction Biology Corp (contract testing)
The description is as above. The method, then: as §1

The target of data set [17] is T13, TRKA (Homo sapiens, UniProt P04629).
T13 construct: purchased Reaction Biology Corp (contract testing)
The description is as above. The method, then: as §1

For data set [18], the target named is T14, ALK (Fl 174L)-EML4 (Homo sapiens, UniProt Q9UM73, F1174L).
T14 construct: EML4 part (fusion partner); purchased Reaction Biology Corp (contract testing)
The data set is described as above. On the procedure: as §1

Data set [19] has as its target T15, ALK-TPM3 (Homo sapiens, UniProt Q9UM73).
T15 construct: fused on or other part: P06753 (Tropomyosin alpha-3 chain)
Described as above. The method, then: as §1

Data set [20] addresses T16, ALK (G1269A) (Homo sapiens, UniProt Q9UM73, G1269A).
T16 construct: purchased Reaction Biology Corp (contract testing)
Described as above. The method, then: as §1

Data set [21] deals with T17, ALK (Fl 174L)-NPM1 (Homo sapiens, UniProt Q9UM73, F1174L).
T17 construct: NPM1 part (fusion partner); purchased Reaction Biology Corp (contract testing); the other entry of the earlier key: NPM1 (P06748, Nucleophosmin)
T17 sequence (Q9UM73 with tags, fused parts or gaps F1174L): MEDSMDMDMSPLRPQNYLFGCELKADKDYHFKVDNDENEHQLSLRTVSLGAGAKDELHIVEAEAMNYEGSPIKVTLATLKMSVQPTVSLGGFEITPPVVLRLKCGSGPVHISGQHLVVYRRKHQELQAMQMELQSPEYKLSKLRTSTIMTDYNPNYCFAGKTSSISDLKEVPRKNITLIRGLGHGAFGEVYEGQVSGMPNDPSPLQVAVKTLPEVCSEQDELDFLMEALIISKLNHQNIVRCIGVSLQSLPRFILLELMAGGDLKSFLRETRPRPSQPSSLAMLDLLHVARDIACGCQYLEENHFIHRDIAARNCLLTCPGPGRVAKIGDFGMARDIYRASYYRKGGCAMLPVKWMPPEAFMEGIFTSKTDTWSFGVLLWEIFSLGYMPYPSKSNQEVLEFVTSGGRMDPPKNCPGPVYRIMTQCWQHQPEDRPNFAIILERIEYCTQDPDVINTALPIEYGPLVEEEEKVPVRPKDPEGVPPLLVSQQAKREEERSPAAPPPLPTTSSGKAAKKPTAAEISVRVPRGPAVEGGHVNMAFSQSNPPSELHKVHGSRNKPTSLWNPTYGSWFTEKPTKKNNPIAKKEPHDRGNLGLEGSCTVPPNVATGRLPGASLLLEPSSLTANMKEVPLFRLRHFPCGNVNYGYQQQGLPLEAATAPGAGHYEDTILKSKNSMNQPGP
The data set is described as above. On the procedure: as §1

Data set [22] addresses T18, ALK-TFG (Homo sapiens, UniProt Q9UM73).
T18 construct: fused on or other part: Q92734 (Protein TFG)
The description is as above. On the procedure:
as §1

In data set [23] the target is T19, c-MET (Homo sapiens, UniProt P08581).
T19 construct: purchased Reaction Biology Corp (contract testing)
The description is as above. On the procedure: as §1

Data set [24] concerns the target T20, ROS1-GOPC (Homo sapiens, UniProt P08922).
T20 construct: fused on or other part: Q9HD26 (Golgi-associated PDZ and coiled-coil motif-containing protein)
The data set is described as above. The method, then:
as §1

The target in data set [25] is T21, EPHB1 (Homo sapiens, UniProt P54762).
T21 construct: purchased Reaction Biology Corp (contract testing)
Described as above. The method, then:
as §1

Data set [26] concerns the target T22, ALK (S1206R) (Homo sapiens, UniProt Q9UM73, S1206R).
T22 construct: purchased Reaction Biology Corp (contract testing)
The data set is described as above. The method, then:
as §1

In data set [27] the target is T23, ALK (C1156Y) (Homo sapiens, UniProt Q9UM73, C1156Y).
T23 construct: purchased Reaction Biology Corp (contract testing)
The description is as above. On the procedure:
as §1

Data set [28] addresses T24, ALK(L1152R) (Homo sapiens, UniProt Q9UM73, L1152R).
T24 construct: purchased Reaction Biology Corp (contract testing)
The data set is described as above. The method, then:
as §1

Data set [29] concerns the target T25, ALK-NPM1 (Homo sapiens, UniProt Q9UM73).
T25 construct: NPM1 part (fusion partner); purchased Reaction Biology Corp (contract testing); the other entry of the earlier key: NPM1 (P06748, Nucleophosmin)
Described as above. On the procedure: as §1

For data set [30], the target named is T26, TRKA-TPM3 (Homo sapiens, UniProt P04629).
T26 construct: fused on or other part: P06753 (Tropomyosin alpha-3 chain)
T26 sequence (P04629 510-796 limits assumed): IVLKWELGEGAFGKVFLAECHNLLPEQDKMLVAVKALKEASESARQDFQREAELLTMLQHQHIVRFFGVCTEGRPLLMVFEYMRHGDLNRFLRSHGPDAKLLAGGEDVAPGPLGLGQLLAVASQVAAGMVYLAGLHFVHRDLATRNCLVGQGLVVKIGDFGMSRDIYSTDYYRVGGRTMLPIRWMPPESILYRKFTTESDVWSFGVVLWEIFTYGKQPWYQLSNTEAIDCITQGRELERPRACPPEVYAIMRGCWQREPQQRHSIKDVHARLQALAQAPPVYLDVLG
Described as above. The method, then:
as §1

For data set [31], the target named is T27, ALK (T1151M) (Homo sapiens, UniProt Q9UM73, T1151M).
T27 construct: purchased Reaction Biology Corp (contract testing)
T27 sequence (Q9UM73 19-1620 T1151M): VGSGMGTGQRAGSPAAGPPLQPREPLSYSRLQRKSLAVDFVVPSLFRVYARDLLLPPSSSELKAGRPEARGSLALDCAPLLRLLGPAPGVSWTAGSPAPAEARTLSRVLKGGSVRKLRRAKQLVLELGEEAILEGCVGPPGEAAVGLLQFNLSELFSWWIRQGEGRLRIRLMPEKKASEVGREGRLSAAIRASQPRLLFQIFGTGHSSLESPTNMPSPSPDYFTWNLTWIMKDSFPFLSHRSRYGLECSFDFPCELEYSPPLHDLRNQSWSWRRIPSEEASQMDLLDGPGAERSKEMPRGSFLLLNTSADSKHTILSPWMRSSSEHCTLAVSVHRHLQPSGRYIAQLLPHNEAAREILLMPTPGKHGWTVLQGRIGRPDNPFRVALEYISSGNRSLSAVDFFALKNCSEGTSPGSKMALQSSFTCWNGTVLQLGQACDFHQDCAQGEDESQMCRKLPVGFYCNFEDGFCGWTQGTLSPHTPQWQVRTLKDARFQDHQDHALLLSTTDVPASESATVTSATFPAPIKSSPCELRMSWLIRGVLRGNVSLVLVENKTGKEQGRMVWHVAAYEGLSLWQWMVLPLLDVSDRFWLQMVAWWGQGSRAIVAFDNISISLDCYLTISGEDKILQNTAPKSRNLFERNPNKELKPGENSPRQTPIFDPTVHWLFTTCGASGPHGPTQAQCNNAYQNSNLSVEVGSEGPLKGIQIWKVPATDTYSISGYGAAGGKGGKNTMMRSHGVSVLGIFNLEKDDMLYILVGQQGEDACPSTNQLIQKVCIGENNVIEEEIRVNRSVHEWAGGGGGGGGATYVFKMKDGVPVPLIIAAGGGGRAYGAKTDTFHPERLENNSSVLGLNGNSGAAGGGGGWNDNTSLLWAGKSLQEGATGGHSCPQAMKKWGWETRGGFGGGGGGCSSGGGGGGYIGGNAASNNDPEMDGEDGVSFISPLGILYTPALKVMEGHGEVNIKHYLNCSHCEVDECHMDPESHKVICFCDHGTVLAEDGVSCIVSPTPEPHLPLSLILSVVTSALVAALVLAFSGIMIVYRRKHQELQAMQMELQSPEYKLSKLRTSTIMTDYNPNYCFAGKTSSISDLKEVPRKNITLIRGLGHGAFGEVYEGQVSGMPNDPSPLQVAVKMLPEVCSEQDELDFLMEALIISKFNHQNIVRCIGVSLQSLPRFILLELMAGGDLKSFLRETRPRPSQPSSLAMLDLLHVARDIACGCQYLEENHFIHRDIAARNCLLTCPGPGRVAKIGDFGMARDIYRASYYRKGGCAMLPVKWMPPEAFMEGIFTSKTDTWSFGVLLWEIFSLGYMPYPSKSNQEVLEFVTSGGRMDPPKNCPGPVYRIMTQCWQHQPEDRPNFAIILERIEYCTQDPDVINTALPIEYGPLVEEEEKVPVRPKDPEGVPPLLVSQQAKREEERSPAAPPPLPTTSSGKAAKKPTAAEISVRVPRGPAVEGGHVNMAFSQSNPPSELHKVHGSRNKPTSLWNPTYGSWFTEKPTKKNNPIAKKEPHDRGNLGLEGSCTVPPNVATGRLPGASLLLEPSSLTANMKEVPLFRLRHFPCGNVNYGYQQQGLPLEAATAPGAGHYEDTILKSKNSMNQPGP
The data set is described as above. The method, then:
as §1

The target in data set [32] is T28, ALK (G1202R) (Homo sapiens, UniProt Q9UM73, G1202R).
T28 construct: purchased Reaction Biology Corp (contract testing)
The data set is described as above. The method, then:
as §1

Data set [33] concerns the target T29, ALK (R1275Q) (Homo sapiens, UniProt Q9UM73, R1275Q).
T29 construct: purchased Reaction Biology Corp (contract testing)
The description is as above. On the procedure: as §1

Data set [34] has as its target T30, ALK (F1174S) (Homo sapiens, UniProt Q9UM73, F1174S).
T30 construct: purchased Reaction Biology Corp (contract testing)
The data set is described as above. On the procedure: as §1

The target in data set [35] is T31, ROS/ROS1 (Homo sapiens, UniProt P08922).
T31 construct: purchased Reaction Biology Corp (contract testing)
The data set is described as above. The method, then: as §1

Data set [36] addresses T32, EPHA1 (Homo sapiens, UniProt P21709).
T32 construct: purchased Reaction Biology Corp (contract testing)
Described as above. On the procedure:
as §1

The conditions of data set [37]: cited from earlier work.
Setting [38] is: Sprague-Dawley, rat, 50 mg/kg single dose, plasma.

pIC50: −log10 of the molar value. Values after ≈ are worked out from the molar mass of the structure shown. Structures can show the parent of a compound that is named as a salt.

The source of these data is patent publication US10899744B2, “Crystalline form of compound suppressing protein kinase activity, and application thereof” (XCOVERY HOLDINGS, INC., priority 2016, dated 2021).

As a reminder, the AUC(0-t) is exposure summed from dosing to a finite time, without extrapolation to infinity. A low value points to less exposure. As usually defined, the Cmax is the highest concentration seen after dosing. In general, Tmax refers to the time from dosing to the highest level. One may read the solubility as the dissolved amount per volume that the medium holds. Broadly, the pIC50 is the IC50 on a negative log10 scale, so that one unit is a factor of ten. Read a high pIC50 as a low IC50.

T18 sequence (Q9UM73 1058-1620 limits assumed): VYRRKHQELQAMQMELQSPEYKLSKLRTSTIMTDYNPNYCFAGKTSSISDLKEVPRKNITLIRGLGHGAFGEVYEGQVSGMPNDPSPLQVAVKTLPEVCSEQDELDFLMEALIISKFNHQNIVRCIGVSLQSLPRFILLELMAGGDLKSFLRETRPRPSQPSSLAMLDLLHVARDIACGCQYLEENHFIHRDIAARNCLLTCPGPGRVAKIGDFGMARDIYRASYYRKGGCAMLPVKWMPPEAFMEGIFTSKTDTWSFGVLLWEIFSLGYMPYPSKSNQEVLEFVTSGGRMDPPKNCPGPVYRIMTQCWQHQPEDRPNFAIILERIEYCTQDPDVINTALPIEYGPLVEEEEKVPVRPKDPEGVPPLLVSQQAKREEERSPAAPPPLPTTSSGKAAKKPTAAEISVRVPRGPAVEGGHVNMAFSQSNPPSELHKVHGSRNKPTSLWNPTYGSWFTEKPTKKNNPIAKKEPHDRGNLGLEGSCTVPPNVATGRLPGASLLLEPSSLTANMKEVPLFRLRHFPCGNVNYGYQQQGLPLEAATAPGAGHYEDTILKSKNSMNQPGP
T11 sequence (Q9UM73 with tags, fused parts or gaps INS1151T limits assumed): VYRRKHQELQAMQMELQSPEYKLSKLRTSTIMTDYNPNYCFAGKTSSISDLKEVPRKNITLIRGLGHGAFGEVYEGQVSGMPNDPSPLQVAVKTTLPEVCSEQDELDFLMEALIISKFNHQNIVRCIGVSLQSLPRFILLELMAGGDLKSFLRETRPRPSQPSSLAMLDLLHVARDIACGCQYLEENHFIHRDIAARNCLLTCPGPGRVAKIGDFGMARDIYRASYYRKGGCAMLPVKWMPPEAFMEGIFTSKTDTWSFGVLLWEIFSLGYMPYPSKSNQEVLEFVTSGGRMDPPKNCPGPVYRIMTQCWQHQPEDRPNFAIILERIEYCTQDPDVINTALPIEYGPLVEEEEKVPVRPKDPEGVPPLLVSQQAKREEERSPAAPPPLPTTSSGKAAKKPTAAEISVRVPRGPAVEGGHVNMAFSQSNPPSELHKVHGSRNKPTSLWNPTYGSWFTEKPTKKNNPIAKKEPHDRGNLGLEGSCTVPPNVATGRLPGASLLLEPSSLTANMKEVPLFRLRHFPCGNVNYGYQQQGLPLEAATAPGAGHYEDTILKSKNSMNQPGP
T5 sequence (Q9UM73 19-1620 F1174L): as the sequence (Q9UM73 19-1620 T1151M) above, with M1133T, F1156L counted along it
T8 sequence (P04629 510-796 limits assumed): as the sequence (P04629 510-796 limits assumed) above
T22 sequence (Q9UM73 19-1620 S1206R): as the sequence (Q9UM73 19-1620 T1151M) above, with M1133T, S1188R counted along it
T16 sequence (Q9UM73 19-1620 G1269A): as the sequence (Q9UM73 19-1620 T1151M) above, with M1133T, G1251A counted along it
T15 sequence (Q9UM73 1116-1392 limits assumed): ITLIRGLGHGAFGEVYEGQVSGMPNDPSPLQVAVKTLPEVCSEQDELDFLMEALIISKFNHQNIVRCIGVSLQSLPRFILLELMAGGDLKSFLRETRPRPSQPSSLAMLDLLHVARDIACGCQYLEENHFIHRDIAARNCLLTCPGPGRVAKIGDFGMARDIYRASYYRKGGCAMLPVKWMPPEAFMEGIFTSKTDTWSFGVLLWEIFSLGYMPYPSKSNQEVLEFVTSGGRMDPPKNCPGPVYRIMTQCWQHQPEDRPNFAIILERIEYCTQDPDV
T25 sequence (Q9UM73 with tags, fused parts or gaps): as the sequence (Q9UM73 with tags, fused parts or gaps F1174L) above, with L234F counted along it
T12 sequence (Q9UM73 19-1620): as the sequence (Q9UM73 19-1620 T1151M) above, with M1133T counted along it

Consider `C[C@@H]1CN(C(=O)c2ccc(NC(=O)c3cc(O[C@H](C)c4c(Cl)ccc(F)c4Cl)c(N)nn3)cc2)C[C@H](C)N1` [Amorphis], for which the weight change entry in [1] was “about 15.7%”. Moreover, the hygroscopicity judgment entry in data set [1] (weight change 0-80% RH) is “extremely hygroscopic”.

For the compound `C[C@@H]1CN(C(=O)c2ccc(NC(=O)c3cc(O[C@H](C)c4c(Cl)ccc(F)c4Cl)c(N)nn3)cc2)C[C@H](C)N1` [Crystalline form A], the “absorption in vivo compared with the free base amorphis” value in [2] (50 mg/kg) is “higher absorption in vivo”. This compound gave an AUC(0-t) in data set [2] (setting [38]) of 11600 ng·h/mL. Moreover, the Cmax in [2] (setting [38]) came out at 1440 ng/mL. Also, in [2] (setting [38]), the Tmax was found to be 2.67 h. The compound further yielded a solubility in [3] of 20 to 100 mg/mL (≈ 35.6 to 178 mM). The “change in crystalline form” value in data set [4] (25° C.-60% RH for 10 days), in [4] (40° C.-75% RH for 10 days) and in [4] (80° C. for 24 hours) was “no change in crystalline form” in each case. Moreover, the moisture removed result in data set [1] (0% RH drying stage) is “about 1.5%”; in [1] (desorption stage, 30% RH), 1.5%. Moreover, the moisture absorbed entry in data set [1] (0% RH-80% RH range) is recorded as “about 2.3%”. In data set [1], the weight change entry was “about 2.3%”. In [1] (range of 30-80% RH), the “change of the weight” value is reported as “less than 2%”.

With `C[C@@H]1CN(C(=O)c2ccc(NC(=O)c3cc(O[C@H](C)c4c(Cl)ccc(F)c4Cl)c(N)nn3)cc2)C[C@H](C)N1` [Crystalline form B], the “change in crystalline form” value in data set [4] (25° C.-60% RH for 10 days), in [4] (40° C.-75% RH for 10 days) and in data set [4] (80° C. for 24 hours) was “no change in crystalline form” each time. The moisture absorbed entry in [1] (10% RH in the adsorption stage) was “about 4%”. In addition, the weight change result in [1] is on record as “about 2.3%”. The change of weight entry in data set [1] (range of 10-80% RH) is “less than 2%”. In addition, the moisture removed result in [1] (under 10% RH) was “about 4%”.

`C[C@@H]1CN(C(=O)c2ccc(NC(=O)c3cc(O[C@H](C)c4c(Cl)ccc(F)c4Cl)c(N)nn3)cc2)C[C@H](C)N1` [Crystalline form C]: the “change in crystalline form” value in data set [4] (dried in vacuum at room temperature overnight) was “almost completely converted to Crystalline form A”.

For `C[C@@H]1CN(C(=O)c2ccc(NC(=O)c3cc(O[C@H](C)c4c(Cl)ccc(F)c4Cl)c(N)nn3)cc2)C[C@H](C)N1` [Crystalline form D], in data set [4] (dried at room temperature or dried in vacuum at room temperature), the “change in crystalline form” value was “transformed into Crystalline form B”.

As for `C[C@@H]1CN(C(=O)c2ccc(NC(=O)c3cc(O[C@H](C)c4c(Cl)ccc(F)c4Cl)c(N)nn3)cc2)C[C@H](C)N1` [Crystalline form E], the “change in crystalline form” value in data set [4] (placed in a desiccator for 2 days) was “transformed into Crystalline form A”.

For `C[C@@H]1CN(C(=O)c2ccc(NC(=O)c3cc(O[C@H](C)c4c(Cl)ccc(F)c4Cl)c(N)nn3)cc2)C[C@H](C)N1` [compound of Formula I, {5-[(1R)-1-(2,6-dichloro-3-fluorophenyl)ethoxy]-6-aminopyridazin-3-ly}-N-{4-[((3S,5R)-3,5-dimethylpiperazinyl)carbonyl]phenyl} carboxamide hydrochloride], the pIC50 in [5] was 8.47; in [6] it was 8.22; in data set [7], 9.49; in data set [8], 8.94; in data set [9], 9.80; in data set [10], 9.34. Besides, the negative-log IC50 (pIC50) is 7.87 in [11]; 8.91 in data set [12]; 9.34 in data set [13]; 8.86 in data set [14]; 9.59 in data set [15]; 9.80 in data set [16]. Besides, the pIC50 is 8.10 in [17]; 9.28 in [18]; 9.68 in data set [19]; 8.94 in data set [20]; 9.33 in data set [21]; 9.14 in [22]. Further, the pIC50 in [23] is 8.02; in data set [24], 9.01; in data set [25] it was 8.07; in [26], 9.77; in data set [27], 9.55; in data set [28] it was 9.24. For the same compound, the negative-log IC50 (pIC50) in data set [29] is 9.17; in data set [30] it was 9.21; in data set [31], 9.89; in data set [32] it was 8.42; in data set [33], 8.97; in data set [34] it was 9.77. Also, the results for the pIC50 in data set [35] and in data set [36] were 8.85 and 8.21, respectively.

`C[C@@H](Oc1cc(-c2cnn(C3CCNCC3)c2)cnc1N)c1c(Cl)ccc(F)c1Cl` [crizotinib, Crizotinib]: in data set [37] (Phase I clinical trial), the disease control was 90% and the “objective response rate (ORR)” value is given as 64%. Also, in data set [37] (most patients), the “time of treatment until resistance and disease progression” value was 6-18 months.
